Results on one molecule are retold here after patent US11833137B2, “Substituted chromenones, IRE1 inhibitors, and methods of using same” (The Wistar Institute, priority 2018, dated 2023).

Data set [1] concerns XBP-1s expression, 5TGM1 cells. As to the kind of experiment: XBP-1s immunoblot in 5TGM1 multiple myeloma cells. It is filed as cell-based, mouse. As for the experimental part: 5TGM1 mouse multiple myeloma cells, primary mouse B cells, primary mouse Eμ-TCL1 CLL cells, and human CLL cell lines (MEC2 and WaC3) were cultured at 37° C. in a 5% CO2 incubator using RPMI 1640 media (Gibco) supplemented with 10% heat-inactivated FBS, 2 mM L-glutamine, 100 U/mL penicillin G sodium, 1 mM sodium pyruvate, 0.1 mM non-essential amino acids, 100 μg/mL streptomycin sulfate and 0.1 mM β-mercaptoethanol (β-ME).
Cells were lysed using RIPA buffer (10 mM Tris-HCl, pH 7.4, 150 mM NaCl, 1% NP-40, 0.5% sodium deoxycholate, 0.1% SDS, and 1 mM EDTA) supplemented with protease inhibitors (Roche). Protein concentrations were determined by BCA assays (Pierce).
Samples were boiled in SDS-PAGE sample buffer (62.5 mM Tris-HCl, pH 6.8, 2% SDS, 10% glycerol, 0.1% bromophenol blue) with β-ME and analyzed by SDS-PAGE. Proteins were transferred to nitrocellulose membranes, blocked in 5% nonfat milk (wt/vol in PBS), and immunoblotted with indicated primary antibodies and appropriate horseradish peroxidase-conjugated secondary antibodies. Immunoblots were developed using Western Lighting Chemiluminescence Reagent (PerkinElmer).
To develop inhibitors with improved potency to target the IRE1/XBP-1 pathway, tricyclic chromenone-based IRE1 RNase inhibitors with different amine group (R^1) were synthesized and compared: allyloxycarbonyl (alloc) in B-H09 (1), —H in C-B06 (2), and —CH3 in C-D06 (3) (FIG. 1A). 5TGM1 multiple myeloma cells were chosen to evaluate inhibitory effects of these inhibitors because they have constitutively activated IRE1/XBP-1 pathways.
(In general: A western blot detects proteins with antibodies after separation by electrophoresis.)

In the next data set the test system is 5TGM1 cells. As to the kind of experiment: Cell proliferation XTT assay, 5TGM1. The conditions noted are these: 20 μM for a course of 3 days. It is filed as cell-based, mouse. The procedure:
5TGM1 cells were suspended in phenol red-free RPMI media, seeded in 96-well cell culture plates, and treated with indicated IRE1 inhibitors (20 μM, unless indicated otherwise). At indicated time points, cells were spun down and cell proliferation was assessed by XTT assays (Roche) according to the manufacturer's instructions. Briefly, 50 μl XTT labeling reagent, 1 μl electron-coupling reagent, and 100 μl phenol red-free RPMI media were combined and applied to each well of the 96-well plates. Cells were incubated for 4 h in a CO2 incubator to allow for the yellow tetrazolium salt XTT to be cleaved by mitochondrial dehydrogenases of metabolically active cells to form the orange formazan dye, which can be quantified at 492 nm using a BioTek SYNERGY™ NEO2 Multimode Reader.
(In general: Formazan colour is commonly taken as a measure of viable cells.)

The nature of data set [2]: Fluorescence stability (decomposition) in aqueous solution. It is filed as physicochemical. As to conditions: PBS with 1% DMSO, 37° C., 48 h, from 100%. As for the experimental part: (FIG. 2B) 5TGM1 cells were treated with DMSO or with 20 μM 2, 4, 3, or 7 dissolved in DMSO for 3 days and subjected to XTT assays. Percentages of growth were determined by comparing treated groups with control groups (DMSO). Each data point derived from four independent groups receiving exactly the same treatment was plotted as mean±SD. Results are representative of three independent experiments. […] The values of I/I0 were plotted as a function of time and shown in the inset. I0 was the initial fluorescence intensity of 4 at 0 h. […] The values of I/I0 were plotted as a function of time and shown in the inset. I0 was the initial fluorescence intensity of 5 at 0 h. […] (FIG. 2G) The decomposition rates of 7 and 8 were plotted as a function of time in RPMI media incubated at 37° C. Aliquots were analyzed by HPLC and the peaks integrated.
FIGS. 5A-5J illustrate the finding that installation of a boronate cage cleavable by H2O2 stabilizes the 1,3-dioxane acetal protective group of D-F07 to allow for temporal inhibition of XBP-1s upon contact with H2O2. (FIG. 5A) A scheme showing that installation of a boronate-caged group stabilizes the 1,3-dioxane acetal protective group to allow for H2O2-mediated release of intact D-F07. (FIG. 5B) The fluorescence of BC-D-F07a (2.5 μM in the DMSO/PBS solution (v/v=1:99), Ex=360 nm) increases upon incubation with 0 to 200 μM hydrogen peroxide at room temperature for 1 h. (FIG. 5C) The fluorescence of BC-D-F07b (2.5 μM in the DMSO/PBS solution (v/v=1:99), Ex=360 nm) increases upon incubation with 0 to 2 mM hydrogen peroxide at 37° C. for 1 h. […] I0 was the initial fluorescence intensity of D-F07, BC-D-F07a or BC-D-F07b at 0 h. (FIG. 5E) The levels of hydrogen peroxide produced by 5TGM1, 72-h LPS-stimulated primary CLL, MEC2, and WaC3 cells were measured by Amplex Red with or without the addition of extracellular catalase (500 U/mL). (FIG. 5F) 5TGM1 cells were treated with BC-D-F07a at increasing concentrations for 24 h, lysed, and analyzed for the expression of indicated proteins by immunoblots. (FIG. 5G) CD5+ CLL cells purified from spleens of Eμ-TCL1 mice were stimulated with […], subsequently treated with BC-D-F07a at 20 μM for 16 h, and then incubated with hydrogen peroxide at indicated concentrations for another 4 h. Cells were lysed and analyzed for the expression of indicated proteins by immunoblots. […] Cells were lysed and analyzed for the expression of indicated proteins by immunoblots. […] Percentages of growth were determined by comparing treated groups with control groups (DMSO). […]
UV-vis and fluorescence spectra were carried out on a BioTek SYNERGY™ NEO2 instrument (96 well plate).

For data set [3], the system named is XBP-1s expression, CD5+ CLL cells from Eμ-TCL1 mice. As to conditions: cited from earlier work.
For the next data set, the system named is MEC2 cells. The conditions noted are these: cited from earlier work.
A further data set deals with secretory IgM, B cells. The conditions noted are these: cited from earlier work.

With `O=c1oc2c(C3OCCCO3)c(O)ccc2c2c1CNCC2` [Compound 4, 7-(1,3-dioxan-2-yl)-8-hydroxy-1,2,3,4-tetrahydro-5H-chromeno[3,4-c]pyridin-5-one], the “suppression of XBP-1s expression, long term” value in data set [1] (10 μM for a course of 3 days) was “continuously suppressed even after 3-day treatment”. In addition, in data set [1] (24 h), the “concentration that effectively blocks XBP-1s expression” value is 5 µM. Further, the “suppression of XBP-1s expression” value in data set [1] (24 h, at 5 μM) is reported as “more potent than 5”. In the data set on 5TGM1 cells, the “growth inhibition / cytotoxicity (XTT)” value is “more potent than their respective aldehyde counterparts”. Further, the “fluorescence intensity remaining (decomposition)” value in data set [2] stood at 5.1%. In addition, in data set [3], the “expression of XBP-1s in CLL cells” value is “can inhibit the expression of XBP-1s in CLL cells”. For the same molecule, in the data set with MEC2 cells, the “sensitivity of MEC2 cells” value is on record as “less sensitive”. Further, the “production of sIgM by treated B cells” value in the data set on secretory IgM, B cells is listed as “inefficient in producing sIgM”.
